The conditions of series [1]: Crystal; DTA.
The nature of series [2]: Molar enthalpy of transition or fusion. The note with it: Crystal; DSC.

Numbers after ± are expanded uncertainties.

Consider `C1COCCOCCOCCOCCOCCO1.O.O.O.O.O.O.O.O.O.O.O.O` [1,4,7,10,13,16-hexaoxacyclooctadecane dodecahydrate], for which the Normal melting temperature in series [1] turned out to be 9.90 ± 0.53 °C. For the same compound, the “Molar enthalpy of transition or fusion” value in series [2] amounted to 4.66 ± 0.932 kcal/mol.

Regarding `C1COCCOCCOCCOCCOCCO1.O.O.O.O.O.O.O.O` [1,4,7,10,13,16-hexaoxacyclooctadecane octahydrate], the Normal melting temperature in series [1] is 17.10 ± 0.53 °C. Besides, the “Molar enthalpy of transition or fusion” value in series [2] was determined as 2.8 ± 0.574 kcal/mol.

In the case of `C1COCCOCCOCCOCCOCCO1` [1,4,7,10,13,16-hexaoxacyclooctadecane], the Normal melting temperature in series [1] came to 39.10 ± 0.53 °C. Also, the “Molar enthalpy of transition or fusion” value in series [2] is 8.48 ± 0.741 kcal/mol.

Values taken from the NIST ThermoML archive (doi:10.1021/je301087w).
